Data from patent publication US20130136722A1, “Methods of Ex Vivo Expansion of Blood Progenitor Cells, and Generation of Composite Grafts” (The Board of Trustees of The University of Illinois, priority 2011, published 2013).

What was measured:
Format in all cases: cell-based, human
[1] = tested on: cord blood-derived CD34+CD90+ cells; assay: Ex vivo expansion culture of cord blood CD34+ cells with chromatin modifying agents, flow cytometry for CD34/CD90; conditions: for cells co-expressing CD34+ and CD90+ / fold expansion of CD34+CD90+ cells / expansion of CD34+CD90+ cells (in words): 9 days of culture; for cells co-expressing CD34+ and CD90+: cytokines (SCF, Flt3-ligand, TPO, IL-3) plus CMA, FIG. 1A; for fold expansion of CD34+CD90+ cells: cytokines plus CMA; for fold expansion of CD34+CD90+ cells / expansion of CD34+CD90+ cells (in words): FIG. 1B; for CD34+CD90+ (%): mean ± SEM of three independent experiments
Excerpt: Freshly collected human CB was obtained from the New York Blood Center (New York, N.Y.) according to Institutional Review Board guidelines. Low density CB cells (<1.077 g/ml) were obtained by density centrifugation on Ficoll-Paque PLUS (GE Healthcare Bio-Sciences AB, Uppsala, Sweden), from which CD34^+ cells were immunomagnetically isolated by the MACS CD34 progenitor isolation kit (Miltenyi Biotech, Inc., Auburn, Calif.) as described in Araki et al., 2009, Exp Hematol. 37: 1084-1095). The purity of isolated CD34^+ cells routinely ranged from 90-99%.
CD34^+ cell expansion culture with or without CMA was carried out as described (Araki et al., 2009, Id.; Araki et al. 2006, Exp Hematol. 34: 140-149; Araki et al, 2007, Blood 109: 3570-3578.). All other HDAC inhibitors including 1 mM VPA (Sigma), TSA (5 ng/mL), NA (5 mM) or 5 μM of Suberoylanilide hydroxamic acid (SAHA; BioVision, Inc. Mountain View, Calif.) was added twice at 0 hr and after changing media at 48 hrs of culture. HDAC inhibitors were added only once (48 hr) when used in combination with a DNMT inhibitor as described (Araki et al., 2009, Id.; Araki et al., 2006, Id.; Himburg et al., 2010, Nat. Med. 16: 475-482).
Flow cytometric analysis was carried out as described (Araki et al., 2009, Id.; Araki et al. 2006, Id.; Araki et al, 2007, Id.). All antibodies were purchased from BD Bioscience (San Jose, Calif.). All analyses were paired with the corresponding matched isotype control and at least 10,000 live cells were acquired for each analysis (CellQuest software, Becton Dickinson).
In order to compare the effects of various chromatin modifying agents (CMAs) on the degree of expansion of cord blood-derived, primitive subpopulation of CD34^+ cells, valproic acid (VPA), trichostatin A (TSA), nicotinic acid (NA), suberoylanilide hydroxamic acid (SAHA) or 5-aza-2′-deoxycytidine (5azaD) as single agents or in combination was tested in vitro. The results of fluorescence-activated cell sorting experiments performed on cord blood-derived CD34^+/CD90^+ cells treated with CMA agents is shown in FIG. 1A.

[2] = tested on: colony-forming cells (CFC); assay: Colony-forming cell (CFC) assay of CMA expanded CB cells; conditions: mean ± SEM of three independent experiments
Description: (§1) Colony-forming cell (CFC) were assayed by plating 5×10^2 cells per dish in semisolid media and were counted after 14 days as described (Araki et al., 2009, Id.). The number of cobble stone area-forming cell (CAFC) was quantitated in primary and expanded CD34+ cells by plating in limiting dilution onto irradiated M2-10B4 stromal cells as described (Araki et al., 2009, Id.; Conneally et al., 1997, Proc. Natl. Acad. Sci. USA. 94: 9836-9841; Taswell, 1981, J. Immunol. 126: 1614-1619).
(§2) In order to determine the a correlation between expansion of CD34^+CD90^+ cells and their functional potential as pluripotent hematopoietic stem cells, in vitro functional assays were performed, including assessment of colony-forming cells (CFC), a short-term assay, and cobblestone-area forming cells (CAFC), a long-term assay.

[3] = tested on: cobblestone area-forming cells (CAFC); assay: Cobblestone area-forming cell (CAFC) assay, limiting dilution on M2-10B4 stromal cells; conditions: limiting dilution; mean ± SEM of three independent experiments
Description: as §1, §2

In the case of `O=C(O)c1cccnc1` [NA, nicotinic acid], the “cells co-expressing CD34+ and CD90+” value [1] is reported as 6%, the “fold expansion of CD34+CD90+ cells” value [1] is reported as 2.1 fold and the “expansion of CD34+CD90+ cells (in words)” value [1] is reported as “did not promote the expansion”.

In the case of `CC(/C=C/C(=O)NO)=C\[C@@H](C)C(=O)c1ccc(N(C)C)cc1` [TSA, trichostatin A], the “cells co-expressing CD34+ and CD90+” value [1] is reported as 5%, the “fold expansion of CD34+CD90+ cells” value [1] is reported as 7.8±3.5 fold and the “CD34+CD90+ (%)” value [1] is reported as 5.60 ± 0.29^¤ %. The “CFC PE (%) (Colony Forming Cell Plating Efficiency)” value [2] was 4.97 ± 0.39% and the “CAFC Frequency/10^4 cells” value [3] was 6.39 ± 4.81 /10^4 cells.

In the case of `O=C(CCCCCCC(=O)Nc1ccccc1)NO` [SAHA, suberoylanilide hydroxamic acid], the “cells co-expressing CD34+ and CD90+” value [1] is reported as 3%, the “fold expansion of CD34+CD90+ cells” value [1] is reported as 1.2 fold and the “expansion of CD34+CD90+ cells (in words)” value [1] is reported as “did not promote the expansion”.

`Nc1ncn([C@H]2C[C@H](O)[C@@H](CO)O2)c(=O)n1` [5azaD, 5-aza-2′-deoxycytidine] was tested, and the “cells co-expressing CD34+ and CD90+” value [1] was 2%, the “fold expansion of CD34+CD90+ cells” value [1] was 1.2±0.5 fold and the “CD34+CD90+ (%)” value [1] was 2.33 ± 0.60%. The “CFC PE (%) (Colony Forming Cell Plating Efficiency)” value [2] was 8.70 ± 1.37% and the “CAFC Frequency/10^4 cells” value [3] was 21.73 ± 14.57 /10^4 cells.
